According to patent US11926642B2, “Compounds and methods for the treatment of COVID-19” (priority 2020, dated 2024):
Values joined by “and” are separate entries in the source; they are usually repeats but may differ in a detail not shown here. Equal values may be shown once. Read-outs that look alike come from different tables or passages of the source.

Tested on: MA15-CoV
Set-up: species or system mice
Conditions: mouse, in vivo; for decline in day 4 lung viral titers: sc

COc1cccc2[nH]c(C(=O)N[C@@H](CC(C)C)C(=O)N[C@@H](C[C@@H]3CCNC3=O)C(=O)CO)cc12 [parent compound, N-((1S)-1-{[((1S)-3-hydroxy-2-oxo-1-{[(3S)-2-oxopyrrolidin-3-yl]methyl}propyl)amino]carbonyl}-3-methylbutyl)-4-methoxy-1H-indole-2-carboxamide]
reduction of lung viral titers on day 4 post-infection: ≈ 2.0 log 10 and ≈ 1.5 log 10 and ~1.0 log 10 | weight loss and histopathologic signs of disease: decreased | weight loss caused by the virus: reduced | decline in day 4 lung viral titers (30 mg/kg): ≈ 1.5 log 10 | decline in day 4 lung viral titers (100 mg/kg): ≈ 3 log 10 | decline in day 4 lung viral titers (300 mg/kg): ≥ 3.5 log 10
